# Measurements reported in patent US12551524B2 (U.S. NUTRACEUTICALS, INC., priority 2021, dated 2026).
# Tests used:
# [1] = test system: normal shaved mice; details: after about 20 days; cited from earlier work
# [2] = target: T1, 5α-Reductase Type 1 enzyme (Homo sapiens, UniProt P18405); experiment: Inhibition of 5α-Reductase Type 1; format: biochemical
# T1 sequence (P18405 1-259): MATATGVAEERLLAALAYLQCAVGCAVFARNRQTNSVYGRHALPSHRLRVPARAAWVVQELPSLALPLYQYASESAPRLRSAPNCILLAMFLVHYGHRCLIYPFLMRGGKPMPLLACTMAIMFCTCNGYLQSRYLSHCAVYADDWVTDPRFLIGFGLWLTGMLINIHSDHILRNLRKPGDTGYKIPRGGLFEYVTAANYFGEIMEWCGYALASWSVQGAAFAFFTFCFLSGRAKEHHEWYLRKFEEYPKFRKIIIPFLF
# Source text: (§1) The different free fatty acids of medium and long saturated chains and long unsaturated chains are shown, together with esterified fatty acids, oxidized fatty acids, fatty alcohols, phytosterols, and other components. The magnitude of the activity is designated by “none,” “moderate” or “very active” (FIG. 3). The various constituents shown in the table of FIG. 2 are also shown and listed as free fatty acid molecules with: a) medium, saturated chains, b) long, saturated chains, and c) long unsaturated chains. There are esterified fatty acids, oxidized fatty acids, and fatty alcohols. These tables support other evidence that the five active free fatty acids for prostate and hair health are lauric, myristic, oleic, linoleic and linolenic free fatty acids.
# Reference is now made to FIGS. 7B and 7C showing the use of a supercritical CO2 extracted LSESr and Permixon®.
# [3] = target: T2, 5α-Reductase Type 2 enzyme (Homo sapiens, UniProt P31213); experiment: Inhibition of 5α-Reductase Type 2 (Inhibition Experiments 1 and 2); format: biochemical
# T2 sequence (P31213 1-254): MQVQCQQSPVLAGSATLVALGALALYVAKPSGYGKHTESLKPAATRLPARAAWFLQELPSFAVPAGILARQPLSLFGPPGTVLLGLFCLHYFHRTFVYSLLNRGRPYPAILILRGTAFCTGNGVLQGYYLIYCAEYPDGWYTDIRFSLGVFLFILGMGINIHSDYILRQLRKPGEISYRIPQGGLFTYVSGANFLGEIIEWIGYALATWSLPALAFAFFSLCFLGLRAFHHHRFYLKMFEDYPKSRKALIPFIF
# Source text: as §1
# Data are shown in the graphs and bar charts of FIGS. 5 and 6 where data are reported as the effectiveness to inhibit enzyme activity (IC50). […]
# Inhibition Experiment 2 shown in FIG. 6 determined the possible impact of Permixon® product matrix (PEG) on an in vitro assay and the pegylated and conventional ultra-high purity supercritical CO2 extract having the PEG matrix (U4602-PEG) was compared to the commercially available Permixon® and the conventional unpegylated product (U4602) for their ability to inhibit the 5α-Reductase 2 enzyme. […]
# [4] = test system: men with mild to moderate androgenic alopecia; details: 1 milligram per day, 24 months, 100 men; cited from earlier work
compound,measurement,setting,value
CCCCC/C=C\C/C=C\CCCCCCCC(=O)O [linoleic acid],hair growth,[1],about 100%
CCCCCCCC/C=C\CCCCCCCC(=O)O [oleic acid],effect on 5α-Reductase-1 (in words),[2],especially effective
same,effect on 5α-Reductase-2 (in words),[3],not as much
CC(C)(C)NC(=O)[C@H]1CC[C@H]2[C@@H]3CC[C@H]4NC(=O)C=C[C@]4(C)[C@H]3CC[C@]12C [finasteride],men who noted an improvement,[4],68%
